Earlier results, collected in article PMC7674238 (Accounts of chemical research, 2020).
Where two headings read alike, the source gives them in different places.

How the values were obtained:
[1] = test system: VanA VRE; conditions: vancomycin-resistant organisms
[2] = test system: vancomycin-resistant S. aureus (VRSA) strain VRS-2; conditions: for dose-dependent bactericidal effect, rank order (relative to 2 h baseline): n=5/dose
[3] = test system: D-Ala-D-Lac; conditions: D-Ala-D-Lac vs D-Ala-D-Ala
[4] = mice, iv
[5] = test system: VanA VRE
[6] = test system: VanA VRE; conditions: 10 μM
[7] = mice

SMILES | loss in antimicrobial activity (resistance) [1] [fold] | dose-dependent bactericidal effect, rank order (relative to 2 h baseline) [2] | loss in binding affinity between vancomycin and its target [3] [fold] | AUC ([4]; 10 mg/kg) [µg·h/mL] | CL ([4]; 10 mg/kg) [mL/min/kg] | Cmax ([4]; 10 mg/kg) [ng/mL] | Vd ([4]; 10 mg/kg) [L/kg] | t1/2 ([4]; 10 mg/kg) [h] | AUC ([4]; 50 mg/kg (MTD)) [µg·h/mL] | CL ([4]; 50 mg/kg (MTD)) [mL/min/kg] | Cmax ([4]; 50 mg/kg (MTD)) [ng/mL] | Vd ([4]; 50 mg/kg (MTD)) [L/kg] | t1/2 ([4]; 50 mg/kg (MTD)) [h] | resistance development on 50-day serial exposure [5] | reduction in bacteria count ([2]; VanA VRSA, VRS2, without dosing optimization) [log10] | induction of bacteria cell permeabilization [6] | Maximum tolerated dose (MTD) ([7]; iv) [mg/kg] | tolerability [7]
CN[C@H](CC(C)C)C(=O)N[C@H]1C(=O)N[C@@H](CC(N)=O)C(=O)N[C@H]2C(=O)N[C@H]3C(=O)N[C@H](C(=O)N[C@H](C(=O)O)c4cc(O)cc(O)c4-c4cc3ccc4O)[C@H](O)c3ccc(c(Cl)c3)Oc3cc2cc(c3O[C@@H]2O[C@H](CO)[C@@H](O)[C@H](O)[C@H]2O[C@H]2C[C@](C)(N)[C@H](O)[C@H](C)O2)Oc2ccc(cc2Cl)[C@H]1O [compound 1, vancomycin] | 1000 | 32 > 26 ≥ 16 > linezolid > 1 | 1000 | – | – | – | – | – | – | – | – | – | – | – | – | – | – | –
CC(=O)NC[C@H]1CN(c2ccc(N3CCOCC3)c(F)c2)C(=O)O1 [linezolid] | – | 32 > 26 ≥ 16 > linezolid > 1 | – | – | – | – | – | – | – | – | – | – | – | – | – | – | – | –
CN[C@H](CC(C)C)C(=O)N[C@H]1C(=O)N[C@@H](CC(N)=O)C(=O)N[C@H]2C(=O)NC3C(=O)N[C@H](C(=O)N[C@H](C(=O)NCCC[N+](C)(C)C)c4cc(O)cc(O)c4-c4cc3ccc4O)[C@H](O)c3ccc(c(Cl)c3)Oc3cc2cc(c3OC2OC(CO)C(O)[C@H](O)[C@@H]2O[C@H]2CC(C)(NCc3ccc(-c4ccc(Cl)cc4)cc3)[C@H](O)[C@H](C)O2)Oc2ccc(cc2Cl)[C@H]1O (stereo partly shown) [compound 26, C1-CBP-vancomycin] | – | – | – | 81.1 | 2 | 14100 | 1.25 | 7.0 | 430 | 2 | 58900 | 1.04 | 6.2 | much more muted changes in potency | ~3 | more significant | ≥ 50 | well tolerated in mice
